Test results taken from the NIST ThermoML archive (doi:10.1007/s10765-007-0241-8).

Settings: Liquid; for thermal conductivity: Hot wire method; for mass density: Constant-volume piezometry

CCCCCCCC [octane]
100 kPa
Settings	thermal conductivity [W/m/K]
294.5 K	0.126
314.7 K	0.121
334.8 K	0.115

CCCCCCCC[n+]1ccn(C)c1.F[P-](F)(F)(F)(F)F [1-octyl-3-methylimidazolium hexafluorophosphate]
Settings	mass density, 295.1 K [kg/m3]	mass density, 315.1 K [kg/m3]	mass density, 335.2 K [kg/m3]	thermal conductivity, 295.1 K [W/m/K]	thermal conductivity, 315.1 K [W/m/K]	thermal conductivity, 335.2 K [W/m/K]
100 kPa	1236	1222	1207	0.145	0.145	0.144
10000 kPa	1243	1228	1213	0.147	0.146	0.146
20000 kPa	1249	1234	1219	0.147	0.147	0.147

CCCCCCn1cc[n+](C)c1.F[P-](F)(F)(F)(F)F [1-hexyl-3-methylimidazolium hexafluorophosphate]
Settings	mass density, 294.1 K [kg/m3]	mass density, 315.1 K [kg/m3]	mass density, 335.2 K [kg/m3]	thermal conductivity, 294.1 K [W/m/K]	thermal conductivity, 315.1 K [W/m/K]	thermal conductivity, 335.2 K [W/m/K]
100 kPa	1294	1278	1262	0.145	0.145	0.144
10000 kPa	1300	1284	1268	0.147	0.146	0.146
20000 kPa	1306	1290	1274	0.148	0.148	0.147

CCCCn1cc[n+](C)c1.F[P-](F)(F)(F)(F)F [1-butyl-3-methylimidazolium hexafluorophosphate]
Settings	mass density, 100 kPa [kg/m3]	mass density, 10000 kPa [kg/m3]	mass density, 20000 kPa [kg/m3]	thermal conductivity, 0.1 kPa [W/m/K]	thermal conductivity, 10 kPa [W/m/K]	thermal conductivity, 20 kPa [W/m/K]
294.9 K	1369	1373	1378	0.145	0.146	0.148
315 K	1352	1357	1362	0.145	0.146	0.147
335.1 K	1336	1341	1347	0.144	0.145	0.147

Cc1ccccc1 [toluene]
thermal conductivity [W/m/K]
Settings	294.2 K	314.1 K	334.4 K
100 kPa	0.132	0.127	0.122
10000 kPa	0.136	0.131	0.126
20000 kPa	0.139	0.135	0.129
